In BindingDB's records for PubMed 9694916 (Smithkline Beecham Pharmaceuticals, 1998):

Columns and labels:
Endothelin-1 receptor = molecular target: T1, Endothelin-1 receptor (Homo sapiens, UniProt P25101)
T1 sequence (P25101 whole entry): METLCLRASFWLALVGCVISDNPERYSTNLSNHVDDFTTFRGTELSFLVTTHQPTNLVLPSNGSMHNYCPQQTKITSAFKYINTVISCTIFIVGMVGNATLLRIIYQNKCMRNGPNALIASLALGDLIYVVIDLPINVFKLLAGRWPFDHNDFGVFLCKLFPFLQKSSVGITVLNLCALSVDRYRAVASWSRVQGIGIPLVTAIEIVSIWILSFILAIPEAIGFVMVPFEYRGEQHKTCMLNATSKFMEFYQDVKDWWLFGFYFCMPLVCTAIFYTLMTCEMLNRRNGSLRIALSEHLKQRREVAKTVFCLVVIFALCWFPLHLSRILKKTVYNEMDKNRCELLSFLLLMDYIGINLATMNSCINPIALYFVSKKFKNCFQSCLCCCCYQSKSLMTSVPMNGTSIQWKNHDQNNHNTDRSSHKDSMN

[1] = molecular target: T2, Endothelin receptor type B (Homo sapiens, UniProt P24530)
T2 sequence (P24530 whole entry): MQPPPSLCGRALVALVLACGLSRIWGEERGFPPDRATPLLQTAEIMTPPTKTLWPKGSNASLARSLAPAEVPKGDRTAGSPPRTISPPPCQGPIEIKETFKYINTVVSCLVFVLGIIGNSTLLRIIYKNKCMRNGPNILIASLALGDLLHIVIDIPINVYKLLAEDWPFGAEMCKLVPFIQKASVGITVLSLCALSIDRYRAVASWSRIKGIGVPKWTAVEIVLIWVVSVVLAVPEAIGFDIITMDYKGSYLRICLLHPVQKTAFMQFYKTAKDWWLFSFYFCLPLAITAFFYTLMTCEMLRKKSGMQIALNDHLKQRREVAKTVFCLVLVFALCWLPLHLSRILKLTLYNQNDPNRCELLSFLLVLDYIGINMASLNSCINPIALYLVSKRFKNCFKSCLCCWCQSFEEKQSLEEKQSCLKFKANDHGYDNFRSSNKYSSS

Question: Which results are given for `CCCOc1ccc2c(c1)[C@@H](c1ccc(OC)cc1OCC(=O)O)[C@H](C(=O)O)[C@H]2c1ccc2c(c1)OCO2` [(1S,2R,3S)-1-Benzo[1,3]dioxol-5-yl-3-(2-carboxymethoxy-4-methoxy-phenyl)-5-propoxy-indan-2-carboxylic acid]?
Answer: Ki (Endothelin-1 receptor): 0.4 nM; Ki [1]: 21 nM

Question: With `CCCOc1ccc2c(c1)[C@@H](c1ccc(OC)cc1OCCO)[C@H](C(=O)O)[C@H]2c1ccc2c(c1)OCO2` [Enrasentan] as the molecule, how does the Ki (Endothelin-1 receptor) read?
Answer: The Ki was 1.5 nM.

Question: What about the Ki [1] of the same molecule?
Answer: Its Ki is 150 nM.

Question: Which Ki (Endothelin-1 receptor) does the source give for `CCCCn1ncc(/C=C(\Cc2cc3c(cc2OC)OCO3)C(=O)O)c1-c1ccc(OC)cc1OCc1ccccc1C(=O)O` [SB-234551] here?
Answer: The Ki was 0.13 nM.

Question: What about the Ki [1] of the same molecule?
Answer: Its Ki is 500 nM.
